From patent publication US8633204B2 (Pfizer Inc., priority 2006, dated 2014)
pIC50: −log10 of the molar value.

Assays:
[1] = system: PI3-K in BT20 cells (phosphorylation of AKT at serine 473); assay: PI3-Kα Cellular Assay (AKT Ser473 phosphorylation ELISA in BT20 cells); type: cell-based, human; conditions: Homo sapiens, BT-20, pAKT Ser473 ELISA, 1 hour incubation
Method in brief: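 Cells seeded overnight in 0.5% FBS, then exposed 1 h at 37 °C to an 11-concentration 1:3 dilution series, in duplicate.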

[2] = target: PI3-Kα (Mus musculus (Mouse), UniProt P42337); assay: PI3-Kα Biochemical Assay (fluorescence polarization kinase assay)
Method in brief: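 Co-expressed mouse p110/p85 PI3-Kα (4 nM stock) acting on PI(4,5)P2 (60 μM stock) with ATP/MgCl2 in HEPES pH 7.4 buffer, 35 min at room temperature, then EDTA stop. PI(3,4,5)P3 product detected by displacement of TAMRA-PIP3 from Grip1 PH domain (FP, 535/580 nm). IC50 from sigmoidal fit of % inhibition.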

Chain of PI3-Kα (P42337 whole entry, the tested form may be a part): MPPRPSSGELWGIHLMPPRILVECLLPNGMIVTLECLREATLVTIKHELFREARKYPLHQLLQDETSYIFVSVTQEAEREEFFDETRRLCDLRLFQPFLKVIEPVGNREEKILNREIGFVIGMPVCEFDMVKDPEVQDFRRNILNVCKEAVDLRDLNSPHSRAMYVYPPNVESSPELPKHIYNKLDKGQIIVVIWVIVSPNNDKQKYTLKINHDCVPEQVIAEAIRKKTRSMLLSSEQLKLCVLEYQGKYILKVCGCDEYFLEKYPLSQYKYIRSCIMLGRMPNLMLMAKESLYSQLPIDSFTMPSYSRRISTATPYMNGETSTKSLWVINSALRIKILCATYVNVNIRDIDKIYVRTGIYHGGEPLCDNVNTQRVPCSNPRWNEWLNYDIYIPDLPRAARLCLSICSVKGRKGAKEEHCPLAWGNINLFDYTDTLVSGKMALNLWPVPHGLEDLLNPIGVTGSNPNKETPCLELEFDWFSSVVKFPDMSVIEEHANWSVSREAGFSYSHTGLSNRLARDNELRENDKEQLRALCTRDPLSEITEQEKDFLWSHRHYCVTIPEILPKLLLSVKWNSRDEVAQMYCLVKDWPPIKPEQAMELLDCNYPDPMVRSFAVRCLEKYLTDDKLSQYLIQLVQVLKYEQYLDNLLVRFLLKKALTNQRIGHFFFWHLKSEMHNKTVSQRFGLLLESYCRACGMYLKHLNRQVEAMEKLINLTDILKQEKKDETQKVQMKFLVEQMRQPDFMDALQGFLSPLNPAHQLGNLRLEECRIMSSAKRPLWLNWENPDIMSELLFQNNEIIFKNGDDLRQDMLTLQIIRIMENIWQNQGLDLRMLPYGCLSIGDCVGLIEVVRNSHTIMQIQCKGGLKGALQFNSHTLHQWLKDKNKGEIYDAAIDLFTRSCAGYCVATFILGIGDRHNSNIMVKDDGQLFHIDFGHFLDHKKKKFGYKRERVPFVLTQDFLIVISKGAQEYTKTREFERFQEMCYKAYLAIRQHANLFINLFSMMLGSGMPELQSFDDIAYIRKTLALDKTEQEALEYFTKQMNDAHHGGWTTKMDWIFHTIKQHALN
Chain of PI3-Kα (P26450 whole entry partner, the tested form may be a part): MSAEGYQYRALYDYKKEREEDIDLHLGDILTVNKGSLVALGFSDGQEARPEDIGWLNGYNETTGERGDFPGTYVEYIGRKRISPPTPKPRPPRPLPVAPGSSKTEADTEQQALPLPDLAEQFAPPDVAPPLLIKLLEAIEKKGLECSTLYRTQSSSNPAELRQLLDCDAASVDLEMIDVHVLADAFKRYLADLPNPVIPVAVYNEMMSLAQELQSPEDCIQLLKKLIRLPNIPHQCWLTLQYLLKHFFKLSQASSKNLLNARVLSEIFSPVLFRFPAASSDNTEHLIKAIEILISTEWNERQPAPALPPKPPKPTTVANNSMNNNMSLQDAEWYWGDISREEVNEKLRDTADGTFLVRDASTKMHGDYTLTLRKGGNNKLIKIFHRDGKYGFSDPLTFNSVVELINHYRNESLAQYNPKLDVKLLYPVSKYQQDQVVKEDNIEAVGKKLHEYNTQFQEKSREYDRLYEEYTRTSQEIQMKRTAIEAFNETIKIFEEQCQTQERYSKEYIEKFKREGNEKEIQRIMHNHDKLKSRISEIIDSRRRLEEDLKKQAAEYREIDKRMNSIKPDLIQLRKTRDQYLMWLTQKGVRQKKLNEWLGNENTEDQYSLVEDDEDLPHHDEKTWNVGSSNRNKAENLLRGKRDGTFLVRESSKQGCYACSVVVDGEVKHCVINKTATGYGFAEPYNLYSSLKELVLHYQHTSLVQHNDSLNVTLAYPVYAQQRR

SMILES	pIC50 [1]	pIC50 [2]
Cc1nc(N)nc2c1cc(-c1cnc3[nH]ccc3c1)c(=O)n2CC1CCOC1 (stereo not drawn) [Compound 221, 2-amino-4-methyl-6-(1H-pyrrolo[2,3-b]pyridin-5-yl)-8-((tetrahydrofuran-3-yl)methyl)pyrido[2,3-d]pyrimidin-7(8H)-one]	7.24	8.55
Cc1nc(N)nc2c1cc(Br)c(=O)n2CC1CCCO1 (stereo not drawn) [Compound 222, 2-amino-6-bromo-4-methyl-8-((tetrahydrofuran-2-yl)methyl)pyrido[2,3-d]pyrimidin-7(8H)-one]	5.67	7.00
COc1ccc(-c2cc3c(C)nc(N)nc3n(CC3CCCO3)c2=O)cn1 (stereo not drawn) [Compound 224, 2-amino-6-(6-methoxypyridin-3-yl)-4-methyl-8-((tetrahydrofuran-2-yl)methyl)pyrido[2,3-d]pyrimidin-7(8H)-one]	6.92	7.68
Cc1nc(N)nc2c1cc(-c1cnc3[nH]ccc3c1)c(=O)n2CC1CCCO1 (stereo not drawn) [Compound 225, 2-amino-4-methyl-6-(1H-pyrrolo[2,3-b]pyridin-5-yl)-8-((tetrahydrofuran-2-yl)methyl)pyrido[2,3-d]pyrimidin-7(8H)-one]	7.44	8.27
Cc1nc(N)nc2c1cc(-c1cn[nH]c1)c(=O)n2C1CN(C(=O)OC(C)(C)C)C1 [Compound 226, tert-butyl 3-(2-amino-4-methyl-7-oxo-6-(1H-pyrazol-4-yl)pyrido[2,3-d]pyrimidin-8(7H)-yl)azetidine-1-carboxylate]	7.38	6.92
COc1ccc(-c2cc3c(C)nc(N)nc3n(C3CN(C(=O)OC(C)(C)C)C3)c2=O)cn1 [Compound 227]	6.50	7.54
Cc1nc(N)nc2c1cc(-c1cnc3[nH]ccc3c1)c(=O)n2C1CN(C(=O)OC(C)(C)C)C1 [Compound 228, tert-butyl 3-(2-amino-4-methyl-7-oxo-6-(1H pyrrolo[2,3-b]pyridin-5 yl)pyrido[2,3-d]pyrimidin-8(7H)-yl)azetidine-1-carboxylate]	6.59	7.42
Cc1nc(N)nc2c1cc(-c1cnc(N)cn1)c(=O)n2C1CCCC1 [Compound 229, 2-amino-6-(5-aminopyrazin-2-yl)-8-cyclopentyl-4-methylpyrido[2,3-d]pyrimidin-7(8H)-one]	7.75	7.82
Cc1nc(N)nc2c1cc(-c1cncc(N)n1)c(=O)n2C1CCCC1 [Compound 230, 2-amino-6-(6-aminopyrazin-2-yl)-8-cyclopentyl-4-methylpyrido[2,3-d]pyrimidin-7(8H)-one]	7.47	7.70
Cc1nc(N)nc2c1cc(-c1cccc(Cl)n1)c(=O)n2C1CCCC1 [Compound 231, 2-Amino-6-(6-chloro-pyridin-2-yl)-8-cyclopentyl-4-methyl-8H-pyrido[2,3-d]pyrimidin-7-one]	5.46	6.77
CNc1nc(C)c2cc(-c3ccc(OC)nc3)c(=O)n(CCC3CC3)c2n1 [Compound 232, 8-(2-Cyclopropyl-ethyl)-6-(6-methoxy-pyridin-3-yl)-4-methyl-2-methylamino-8H-pyrido[2,3-d]pyrimidin-7-one]	7.38	8.05
COc1ccc(-c2cc3c(C)nc(N)nc3n(CCC3CC3)c2=O)cn1 [Compound 233, 2-Amino-8-(2-cyclopropyl-ethyl)-6-(6-methoxy-pyridin-3-yl)-4-methyl-8H-pyrido[2,3-d]pyrimidin 7-one]	7.03	7.96
CNc1nc(C)c2cc(-c3cnn(C)c3)c(=O)n(C3CCCC3)c2n1 [Compound 234, 8-Cyclopentyl-4-methyl-2-methylamino-6-(1-melhyl-1H-pyrazol-4-yl)-8H-pyrido[2,3-d]pyrimidin-7-one]	6.50	7.41
CNc1nc(C)c2cc(-c3cnn(CC(F)F)c3)c(=O)n(C3CCCC3)c2n1 [Compound 236, 8-Cyclopentyl-6-[1-(2,2-difluoro-ethyl)-1H pyrazol-4-yl]-4-methyl 2-methylamino-8H-pyrido[2,3 d]pyrimidin-7-one]	5.00	7.34
Cc1nc(N)nc2c1cc(-c1cnn(CC(F)F)c1)c(=O)n2C1CCCC1 [Compound 237, 2-Amino-8-cyclopentyl-6-[1-(2,2-drfluoro-ethyl)-1H-pyrazol-4-yl]-4-methyl 8H-pyrido[2,3-d]pyrimidin-7-one]	6.40	7.92
COc1ccc(-c2cc3c(C)nc(N)nc3n(CCN)c2=O)cn1 [Compound 238, 2-Amino-8-(2-amino-ethyl)-6-(6-methoxy-pyridin-3-yl)-4-methyl-8H-pyrido[2,3-d]pyrimidin-7-one]	5.34	6.47
Cc1nc(N)nc2c1cc(-c1cnn(CC(C)(C)O)c1)c(=O)n2C1CCCC1 [Compound 240, 2-Amino-8-cyclopentyl-6-[1-(2-hydroxy-2-methyl-propyl)-1H-pyrazol-4-yl]-4-methyl-8H-pyrido[2,3-d]pyrimidin-7-one]	7.00	7.05
COc1ccc(-c2cc3c(C)nc(N)nc3n(CC3CCOCC3)c2=O)cn1 [Compound 242, 2-Amino-6-(6-methoxy-pyridin-3-yl)-4-methyl-8-(tetrahydro-pyran-4-ylmethyl)-8H-pyrido[2,3-d]pyrimidin-7-one]	7.05	7.82
COc1ccc(-c2cc3c(C)nc(N)nc3n(CC3(F)CCOCC3)c2=O)cn1 [Compound 243, 2-Amino-8-(4-fluoro-tetrahydro-pyran-4-ylmethyl)-6-(6-methoxy-pyridin-3-yl)-4-methyl-8H-pyrido[2,3-d]pyrimidin 7-one]	6.50	7.74
COc1ccc(-c2cc3c(C)nc(N)nc3n(CC(C)(C)F)c2=O)cn1 [Compound 244, 2-Amino-8-(2-fluoro-2-methyl-propyl)-6-(6-methoxy-pyridin-3-yl)-4-methyl-8H-pyrido[2,3-d]pyrimidin-7-one]	6.36	7.52
CNc1nc(C)c2cc(-c3c[nH]c(C)n3)c(=O)n(C3CCCC3)c2n1 [Compound 245, 8-Cyclopentyl-4-methyl-2-methylamino-6-(2-methyl-1H-imidazol-4-yl)-8H-pyrido[2,3-d]pyrimidin-7-one]	6.74	7.17
COc1ccc(-c2cc3c(C)nc(N)nc3n(C3CCN(C(=O)OC(C)(C)C)C3)c2=O)cn1 (stereo not drawn) [Compound 246, 3-[2-Amino-6-(6-methoxy-pyridin-3-yl)-4-methyl-7-oxo-7H-pyrido[2,3-d]pyrimidin 8-yl]-pyrrolidine-1-carboxylic acid tert-butyl ester]	6.76	7.57
COc1ccc(-c2cc3c(C)nc(N)nc3n(C3CCNC3)c2=O)cn1 (stereo not drawn) [Compound 247, 2-Amino-6-(6-methoxy-pyridin-3-yl)-4-methyl-8-pyrrolidin-3-yl-8H-pyrido[2,3-d]pyrimidin-7-one]	6.17	6.70
COc1ccc(-c2cc3c(C)nc(N)nc3n(C3CCN(C(C)=O)C3)c2=O)cn1 (stereo not drawn) [Compound 248, 8-(1-Acetyl-pyrrolidin-3-yl)-2-amin-6-(6-methoxy-pyridin-3-yl)-4-methyl-8H-pyrido[2,3-d]pyrimidin-7-one]	6.90	8.15
